This test relates to Influenza virus A/PR/8/34 (H1N1). As to the kind of experiment: in vitro cytopathic effect (CPE) assay in MDCK cells. The format is cell-based. Conditions: H1N1|PR/8, 120 h; MDCK cells infected with Influenza virus A/PR/8/34 (H1N1), 5 days, cell viability by CCK8. (Damage to the host cells serves as the signal in cytopathic effect assays.)

Structures are written as SMILES.

The values below come from US20220177487A1, “FUSED POLYCYCLIC PYRIDONE COMPOUNDS AS INFLUENZA VIRUS REPLICATION INHIBITORS” (NIKANG THERAPEUTICS, INC., priority 2019, published 2022).

The EC50 is the midpoint of the concentration-response curve. High values mean lower potency in that assay, low ones higher potency in that assay. In turn, `O=C1c2c(O)c(=O)ccn2N([C@@H]2c3ccccc3SCc3cccc(F)c32)[C@@H]2[C@H]3C[C@@H]4CC[C@@]3(CCN12)O4` [Compound 3, (2S,4aS,14aR,14bR)-14-((S)-10-fluoro-6,11-dihydro-dibenzo[b,e]thiepin-11-yl)-9-hydroxy-1,3,4,5,6,14,14a,14b-octahydro-2H-2,4a-epoxypyrido[1′,2′:1,6][1,2,4]triazino[3,4-a]-isoquinoline-8,10-dione] displayed an EC50 of 0.0021 µM. That is a single-digit nanomolar value.
Turning to `O=C1c2c(O)c(=O)ccn2N(C2c3ccc(F)cc3CCc3cc(F)ccc32)[C@@H]2[C@H]3C[C@@H]4CC[C@@]3(CCN12)O4` [Compound 10, (2S,4aS,14aR,14bR)-14-(2,8-difluoro-10,11-dihydro-5H-dibenzo[a,d][7]annulen-5-yl)-9-hydroxy-1,3,4,5,6,14,14a,14b-octahydro-2H-2,4a-epoxypyrido[1′,2′:1,6][1,2,4]triazino[3,4-a]-isoquinoline-8,10-dione], the EC50 turned out to be 0.0036 µM.
`O=C1c2c(O)c(=O)ccn2N(C2c3cccc(F)c3CCc3c(F)cccc32)[C@@H]2[C@H]3C[C@@H]4CC[C@@]3(CCN12)O4` [Compound 9, (2S,4aS,14aR,14bR)-14-(1,9-difluoro-10,11-dihydro-5H-dibenzo[a,d][7]annulen-5-yl)-9-hydroxy-1,3,4,5,6,14,14a,14b-octahydro-2H-2,4a-epoxypyrido[1′,2′:1,6][1,2,4]triazino[3,4-a]-isoquinoline-8,10-dione]: the EC50 came to 0.02 µM.
The compound `O=C1c2c(O)c(=O)ccn2N([C@H]2c3ccccc3SCc3cccc(F)c32)[C@@H]2[C@H]3C[C@@H]4CC[C@@]3(CCN12)O4` [Compound 4, (2S,4aS,14aR,14bR)-14-((R)-10-fluoro-6,11-dihydro-dibenzo[b,e]thiepin-11-yl)-9-hydroxy-1,3,4,5,6,14,14a,14b-octahydro-2H-2,4a-epoxypyrido[1′,2′:1,6][1,2,4]triazino[3,4-a]-isoquinoline-8,10-dione] gave a concentration for a half-maximal effect (EC50) of 0.052 µM.
